Measurements reported in US9549965B2, “Pharmaceutical composition for treating a microbial infection” (HELPERBY THERAPEUTICS LIMITED, priority 2010, dated 2017).
Where a name gives a salt, the structure may show the parent alone. Read-outs that look alike come from different tables or passages of the source.

Experiments:
stationary phase E. coli = test: Bactericidal activity against stationary phase E. coli (CFU counts); type: cell-based, Escherichia coli; details: Escherichia coli, read-out: Log kill
Protocol: (§1) Escherichia coli K12; Gram negative; Reference strain.
(§2) Bacteria were grown in 10 ml of nutrient broth (No. 2 (Oxoid)) overnight at 37° C., with continuous shaking at 120 rpm. The overnight cultures were diluted (1000×) in 100 ml of growth medium and then incubated without shaking for 10 days. Viability of the bacteria was estimated by colony forming unit (CFU) counts at 2 hour intervals at the first 24 hours and at 12-24 hours afterwards. From serial 10-fold dilutions of the experimental cultures, 100 μl samples were added to triplicate plates of nutrient agar plates (Oxoid) and blood agar plates (Oxoid). Colony forming units (CFU) were counted after incubation of the plates at 37° C. for 24 hours.
(§3) Cultures incubated for more than 24 hours are in the stationary phase. For drug screening, 5-6 day old stationary phase cultures were used.
(§4) Different concentrations of each test compound were incubated with stationary phase cultures (5-6 day cultures) in 96 well plates for 24 or 48 hours. Bactericidal activity was then determined by taking CFU counts of the resulting cultures, as described above.

log phase E. coli = test: MIC against log phase E. coli; type: cell-based, Escherichia coli
Protocol: as §1
The above-described overnight cultures were diluted (1000×) with iso-sensitest broth. The cultures were then incubated at 37° C. with shaking for 1-2 hours to reach log CFU 6, which served as log phase cultures.
The bactericidal activity of the drugs against log phase cultures were determined by minimal inhibitory concentration (MIC) of the drugs, which is defined as the lowest concentration which inhibits visible growth. Different concentrations of each test compound were incubated with the log-phase cultures in 96 well plates for 24 hours. Bactericidal activity was then examined by taking a spectrophotometer reading (using a plate reader) at 405 nm.

persistent E. coli = test: Bactericidal activity against persistent E. coli selected by gentamicin; type: cell-based, Escherichia coli
Protocol: as §1
An antibiotic (gentamicin) was added to 5-6 day stationary-phase cultures to the final concentration of 50 to 100 μg/ml for 24 hours. After 24 hours of antibiotic treatment, the cells are washed 3 times with phosphate buffered saline (PBS), and then resuspended in PBS. The surviving bacterial cells are used as persisters. Viability is estimated by CFU counts. The persisters were then used in measurements of bactericidal activity for test compounds.
Different concentrations of each test compound were incubated with the (persister) cell suspension in 96 well plates for various periods of time (24 and 48 hours). Bactericidal activity was then determined by taking CFU counts of the resulting cultures, as described above.

[1] = system: stationary phase S. aureus; test: Bactericidal activity against stationary phase S. aureus (CFU counts); type: cell-based, Staphylococcus aureus; details: for log reduction at 6.25 µg/mL / log reduction at 12.5 µg/mL / log reduction at 25 µg/mL: Staphylococcus aureus, read-out: Log Kill
Protocol: Staphylococcus aureus (Oxford strain); Gram positive; Reference strain.
as §2, §3, §4

[2] = Escherichia coli, read-out: MIC

Compound	MIC (log phase E. coli; [2]) [µg/mL]	log reduction at 6.25 µg/mL ([1]; 6.25 μg/ml)	log reduction at 12.5 µg/mL ([1]; 12.5 μg/ml)	log reduction at 25 µg/mL ([1]; 25 μg/ml)	further results
COc1cccc2c1C(=O)c1c(O)c3c(c(O)c1C2=O)C[C@@](O)(C(=O)CO)C[C@@H]3O[C@H]1C[C@H](N)[C@H](O)[C@H](C)O1 [Doxorubicin]	> 50	–	–	–	log reduction at 6.25 µg/mL (stationary phase E. coli; 6.25 μg/ml): 6.14; log reduction at 12.5 µg/mL (stationary phase E. coli; 12.50 μg/ml): 6.14; log reduction at 25 µg/mL (stationary phase E. coli; 25.00 μg/ml): 6.14
C1CCC(C(CC2CCCCN2)C2CCCCC2)CC1 (stereo not shown) [Perhexiline maleate]	10	6.15	6.15	6.15	log reduction at 6.25 µg/mL (persistent E. coli; Escherichia coli, 6.25 μg/ml, read-out: Log Kill): -0.01; log reduction at 12.5 µg/mL (persistent E. coli; Escherichia coli, 12.5 μg/ml, read-out: Log Kill): 0.04; log reduction at 25 µg/mL (persistent E. coli; Escherichia coli, 25 μg/ml, read-out: Log Kill): 6.21
COC(=O)C1=C(C)NC(C)=C(C(=O)OCC(C)C)C1c1ccccc1[N+](=O)[O-] (stereo not shown) [Nisoldipine]	> 50	0	6.15	6.15	–
CN(C)CCOc1ccc(/C(=C(/CCCl)c2ccccc2)c2ccccc2)cc1 [Toremifene citrate]	–	6.15	6.15	6.15	–
Clc1ccc(C(Cn2ccnc2)OCc2ccsc2Cl)c(Cl)c1 (stereo not shown) [Tioconazole]	–	0	6.15	6.15	–
Bithionate sodium	–	–	–	–	Log Kill (persistent E. coli; 6.25 μg/ml): 0.01; Log Kill (persistent E. coli; 12.5 μg/ml): 0.03; Log Kill (persistent E. coli; 25 μg/ml): 6.21; MIC (log phase E. coli): 5 µg/mL; Log Kill ([1]; 6.25 μg/ml): 0.01; Log Kill ([1]; 12.5 μg/ml): 6.15; Log Kill ([1]; 25 μg/ml): 6.15
